Source: PMC8286840, “Identifying SARS-CoV-2 antiviral compounds by screening for small molecule inhibitors of Nsp3 papain-like protease” (Biochemical Journal, 2021)
Where a name gives a salt, the structure may show the parent alone. Read-outs that look alike come from different tables or passages of the source.

Columns and labels:
[1] = molecular target: T1, SARS-CoV-2 PLpro (nsp3 1564–1878) (Severe acute respiratory syndrome coronavirus 2, UniProt P0DTD1); assay: biochemical; parameters: FRET-quenched peptide (Pro3) cleavage by PLpro, 10 min pre-incubation, slope over 20 min, normalised to no-compound control; conditions: high concentration screen, read-out: % of control remaining
[2] = molecular target: T1, SARS-CoV-2 PLpro (nsp3 1564–1878); assay: biochemical; parameters: FRET-quenched peptide (Pro3) cleavage by PLpro, 10 min pre-incubation, slope over 20 min, normalised to no-compound control; conditions: low concentration screen, read-out: % of control remaining

COc1ccc(CC2NCCc3cc(OC)c(OC)cc32)cc1OC (stereo not shown) [Tetrahydropapaverine HCl]
remaining activity at 3.75 µM ([1]; Well no.=8290): 98% | remaining activity at 1.25 µM ([2]; Well no.=8290): 99.5%

c1ccc2c(c1)CCCC2C1=NCCN1 (stereo not shown) [Tetrahydrozoline (hydrochloride)]
remaining activity at 3.75 µM ([1]; Well no.=8099): 91.5% | remaining activity at 1.25 µM ([2]; Well no.=8099): 96.6%

c1ccc2c(c1)CCCC2C1=NCCN1 (stereo not shown) [Tetrahydrozoline hydrochloride]
remaining activity at 3.75 µM ([1]; Well no.=1239): 103% | remaining activity at 1.25 µM ([2]; Well no.=1239): 103%

CC(C)NP(=O)(NC(C)C)OP(=O)(NC(C)C)NC(C)C [Tetraisopropyl pyrophosphoramide]
remaining activity at 3.75 µM ([1]; Well no.=1473): 100% | remaining activity at 1.25 µM ([2]; Well no.=1473): 103%

Cc1nc(C)c(C)nc1C [Tetramethylpyrazine]
remaining activity at 3.75 µM ([1]; Well no.=4143): 97.4% | remaining activity at 1.25 µM ([2]; Well no.=4143): 98.6%

c1ccc(C2CN3CCSC3=N2)cc1 (stereo not shown) [Tetramisole hydrochloride]
remaining activity at 3.75 µM ([1]; Well no.=1521): 100% | remaining activity at 1.25 µM ([2]; Well no.=1521): 99.3%

COc1ccc2cc1Oc1ccc(cc1)C[C@H]1c3cc(c(OC)cc3CCN1C)Oc1c(OC)c(OC)cc3c1[C@H](C2)N(C)CC3 [Tetrandrine]
remaining activity at 3.75 µM ([1]; Well no.=3182): 99.4% | remaining activity at 1.25 µM ([2]; Well no.=3182): 103%

CCCCC/C=C\C[C@@H](O)/C=C/C=C\CCC(=O)O [Tetranor-12(R)-HETE]
remaining activity at 3.75 µM ([1]; Well no.=4563): 97.6% | remaining activity at 1.25 µM ([2]; Well no.=4563): 97%

O=C1CCC(N2C(=O)c3ccccc3C2=O)C(=O)N1 (stereo not shown) [Thalidomide]
remaining activity at 3.75 µM ([1]; Well no.=2261): 102% | remaining activity at 1.25 µM ([2]; Well no.=2261): 98.2%

C/C=C(/C)C(=O)O[C@H]1C(C)=C2[C@H]([C@@H]1OC(=O)CCCCCCC)[C@@](C)(OC(C)=O)C[C@H](OC(=O)CCC)[C@@]1(O)[C@H]2OC(=O)[C@@]1(C)O [Thapsigargin]
remaining activity at 3.75 µM ([1]; Well no.=1470): 95.1% | remaining activity at 3.75 µM ([1]; Well no.=3184): 107% | remaining activity at 1.25 µM ([2]; Well no.=1470): 98% | remaining activity at 1.25 µM ([2]; Well no.=3184): 107%

Cn1cnc2c1c(=O)[nH]c(=O)n2C [Theobromine]
remaining activity at 3.75 µM ([1]; Well no.=1479): 97.3% | remaining activity at 3.75 µM ([1]; Well no.=3491): 96.4% | remaining activity at 3.75 µM ([1]; Well no.=6387): 102% | remaining activity at 3.75 µM ([1]; Well no.=8067): 104% | remaining activity at 1.25 µM ([2]; Well no.=1479): 96.7% | remaining activity at 1.25 µM ([2]; Well no.=3491): 95.7% | remaining activity at 1.25 µM ([2]; Well no.=6387): 101% | remaining activity at 1.25 µM ([2]; Well no.=8067): 106%

c1ccc2[nH]c(-c3cscn3)nc2c1 [Thiabendazole]
remaining activity at 3.75 µM ([1]; Well no.=4622): 98.1% | remaining activity at 1.25 µM ([2]; Well no.=4622): 100%

Cc1ncc(C[n+]2csc(CCO)c2C)c(N)n1 [Thiamine HCl (Vitamin B1)]
remaining activity at 3.75 µM ([1]; Well no.=4638): 96.6% | remaining activity at 1.25 µM ([2]; Well no.=4638): 94.5%

CS(=O)(=O)c1ccc([C@H](O)[C@@H](COC(=O)CN)NC(=O)C(Cl)Cl)cc1 [Thiamphenicol glycinate]
remaining activity at 3.75 µM ([1]; Well no.=2025): 108% | remaining activity at 1.25 µM ([2]; Well no.=2025): 109%

O=C(NCc1ccccc1)c1csc(Nc2ccncn2)n1 [Thiazovivin]
remaining activity at 3.75 µM ([1]; Well no.=4867): 102% | remaining activity at 1.25 µM ([2]; Well no.=4867): 100%

NC(=S)c1ccc[n+]([C@@H]2O[C@H](COP(=O)([O-])OP(=O)(O)OC[C@H]3O[C@@H](n4cnc5c(N)ncnc54)[C@H](OP(=O)(O)O)[C@@H]3O)[C@@H](O)[C@H]2O)c1 [Thio-NADP sodium]
remaining activity at 3.75 µM ([1]; Well no.=1481): 93.5% | remaining activity at 1.25 µM ([2]; Well no.=1481): 98%

Nc1nc2[nH]cnc2c(=S)[nH]1 [Thioguanine]
remaining activity at 3.75 µM ([1]; Well no.=4624): 102% | remaining activity at 1.25 µM ([2]; Well no.=4624): 102%

S=C(NC1CCCCC1)N1CCC(c2cnc[nH]2)CC1 [Thioperamide maleate]
remaining activity at 3.75 µM ([1]; Well no.=1234): 104% | remaining activity at 1.25 µM ([2]; Well no.=1234): 102%

CSc1ccc2c(c1)N(CCC1CCCCN1C)c1ccccc1S2 (stereo not shown) [Thioridazine (hydrochloride)]
remaining activity at 3.75 µM ([1]; Well no.=7376): 98.1% | remaining activity at 1.25 µM ([2]; Well no.=7376): 97.9%

CSc1ccc2c(c1)N(CCC1CCCCN1C)c1ccccc1S2 (stereo not shown) [Thioridazine hydrochloride]
remaining activity at 3.75 µM ([1]; Well no.=1422): 95.6% | remaining activity at 1.25 µM ([2]; Well no.=1422): 96.4%

CSc1ccc2c(c1)N(CCC1CCCCN1C)c1ccccc1S2 (stereo not shown) [Thioridazine]
remaining activity at 3.75 µM ([1]; Well no.=2140): 96.6% | remaining activity at 1.25 µM ([2]; Well no.=2140): 97.3%

CN1CCN(CC/C=C2/c3ccccc3Sc3ccc(S(=O)(=O)N(C)C)cc32)CC1 [Thiothixene hydrochloride]
remaining activity at 3.75 µM ([1]; Well no.=1281): 112% | remaining activity at 1.25 µM ([2]; Well no.=1281): 106%

NC(N)=S [Thiourea]
remaining activity at 3.75 µM ([1]; Well no.=4097): 101% | remaining activity at 1.25 µM ([2]; Well no.=4097): 98.1%

CCCCC[C@H](O)/C=C/[C@H]1OC(O)C[C@H](O)[C@@H]1C/C=C\CCCC(=O)O (stereo partly shown) [Thromboxane B2]
remaining activity at 3.75 µM ([1]; Well no.=4286): 98.5% | remaining activity at 1.25 µM ([2]; Well no.=4286): 99.3%

Cc1cn([C@H]2C[C@H](O)[C@@H](CO)O2)c(=O)[nH]c1=O [Thymidine]
remaining activity at 3.75 µM ([1]; Well no.=7349): 106% | remaining activity at 3.75 µM ([1]; Well no.=7770): 97.4% | remaining activity at 1.25 µM ([2]; Well no.=7349): 104% | remaining activity at 1.25 µM ([2]; Well no.=7770): 94.3%

Cc1c[nH]c(=O)[nH]c1=O [Thymine]
remaining activity at 3.75 µM ([1]; Well no.=6629): 108% | remaining activity at 1.25 µM ([2]; Well no.=6629): 103%

CC1=CC(=O)C(C(C)C)=CC1=O [Thymoquinone]
remaining activity at 3.75 µM ([1]; Well no.=3567): 102% | remaining activity at 3.75 µM ([1]; Well no.=4095): 101% | remaining activity at 1.25 µM ([2]; Well no.=3567): 101% | remaining activity at 1.25 µM ([2]; Well no.=4095): 102%

CCN(CC)CCNC(=O)c1cc(S(C)(=O)=O)ccc1OC [Tiapride hydrochloride]
remaining activity at 3.75 µM ([1]; Well no.=1185): 100% | remaining activity at 1.25 µM ([2]; Well no.=1185): 101%

C#C[C@]1(O)CC[C@H]2[C@@H]3[C@H](C)CC4=C(CCC(=O)C4)[C@H]3CC[C@@]21C [Tibolone]
remaining activity at 3.75 µM ([1]; Well no.=1954): 98.3% | remaining activity at 1.25 µM ([2]; Well no.=1954): 97.8%

CCCSc1nc(N[C@@H]2C[C@H]2c2ccc(F)c(F)c2)c2nnn([C@@H]3C[C@H](OCCO)[C@@H](O)[C@H]3O)c2n1 [Ticagrelor]
remaining activity at 3.75 µM ([1]; Well no.=4738): 108% | remaining activity at 3.75 µM ([1]; Well no.=6329): 102% | remaining activity at 1.25 µM ([2]; Well no.=4738): 105% | remaining activity at 1.25 µM ([2]; Well no.=6329): 101%

CC1(C)S[C@@H]2[C@H](NC(=O)[C@H](C(=O)O)c3ccsc3)C(=O)N2[C@H]1C(=O)O [Ticarcillin (disodium)]
remaining activity at 3.75 µM ([1]; Well no.=7782): 109% | remaining activity at 1.25 µM ([2]; Well no.=7782): 105%
